Like-named read-outs stand apart in the source and are kept apart here.
How the values were obtained:
sigma-2 binding site = target: T1, sigma-2 binding site (Cavia porcellus, UniProt H0V073); test: biochemical; parameters: species or system guinea pig
T1 construct: Guinea pig whole membrane preparations (P2 microsomal fraction); from tissue; host or cells: guinea pig membranes (P2 microsomal fraction), as described by Weber et al; brain inferred from the sister test b489
T1 sequence (H0V073 1-176): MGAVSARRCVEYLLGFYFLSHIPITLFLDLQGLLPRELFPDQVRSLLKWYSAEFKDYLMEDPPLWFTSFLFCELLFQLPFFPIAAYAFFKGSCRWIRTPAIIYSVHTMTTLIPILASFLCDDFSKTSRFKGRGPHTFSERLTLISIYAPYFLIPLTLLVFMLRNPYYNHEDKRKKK
Protocol: For the standard equilibrium assay, the mixtures were incubated for 30 min. at room temperature, then filtered and the radioactivity determined as described above.

sigma-1 binding site = target: T2, sigma-1 binding site (Cavia porcellus, UniProt Q60492); test: biochemical; parameters: species or system guinea pig; conditions: for S1/S2 Ratio: Table 11, sigma-1/sigma-2
T2 construct: Guinea pig whole membrane preparations (P2 microsomal fraction); from tissue; host or cells: guinea pig membranes (P2 microsomal fraction), as described by Weber et al; brain inferred from the sister test b489
Protocol: [^3 H]DTG was purchased from DuPont/NEN.
The radioactivity on the filters was determined by scintillation spectrometry at an efficiency of about 50% using Cytoscint (ICN) scintillation fluid.

5-HT1A receptor = target: T3, 5-HT1A receptor (Rattus norvegicus, UniProt P19327); test: biochemical; assay type: binding; parameters: 47: 529-540 (1986); from tissue; host or cells: brain tissue, inferred from the cited method (rat frontal cortex); conditions: Table 6; read-out: 5HT-1A (nM) MEAN
T3 sequence (P19327 1-422): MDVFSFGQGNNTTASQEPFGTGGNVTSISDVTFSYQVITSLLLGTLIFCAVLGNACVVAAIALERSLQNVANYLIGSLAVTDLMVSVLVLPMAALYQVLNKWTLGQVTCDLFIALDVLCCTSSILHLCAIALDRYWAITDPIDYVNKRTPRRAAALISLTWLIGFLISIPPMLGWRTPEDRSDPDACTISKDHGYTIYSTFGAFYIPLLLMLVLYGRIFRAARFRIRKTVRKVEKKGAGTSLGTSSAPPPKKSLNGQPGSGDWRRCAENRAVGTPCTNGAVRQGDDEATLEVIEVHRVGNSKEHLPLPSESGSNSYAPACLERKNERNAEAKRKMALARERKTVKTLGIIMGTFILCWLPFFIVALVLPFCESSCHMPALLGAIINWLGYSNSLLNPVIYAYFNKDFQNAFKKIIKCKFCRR
Protocol: (§1) Further sigma receptor binding assays against [^3 H]DTG and 5HT-1A binding assays were conducted according to the procedure outlined in the previous examples.

sigma receptor = test: Sigma receptor binding, [^3 H]DTG, brain membranes (both sigma-1 and sigma-2 sites); parameters: species or system guinea pig; conditions: Table 6; [^3 H]DTG
Protocol: Sigma receptor binding assays using guinea pig brain membrane homogenates and the radioligand [^3 H]DTG were conducted as described by Weber et al.. […] Briefly, frozen whole guinea-pig brains (Biotrol, Indianapolis, Ind.) were homogenized in 10 volumes (w/v) of ice-cold 320 mM sucrose using a Brinkman polytron. The homogenate was centrifuged at 1,000× g for 20 minutes at 4° C. The supernatant was centrifuged at 20,000× g for 20 minutes at 4° C. The resulting pellet was resuspended in 10 initial volumes of 50 mM Tris/HCl buffer at pH 7.4 and centrifuged at 20,000× g for 20 minutes at 4° C. The resulting pellet was resuspended in 5 initial volumes ice-cold 50 mM Tris/Hcl […], and the final volume was adjusted to yield a protein concentration of 3 mg/ml. Aliquots of 20-ml were stored at -70° C. until used, with no detectable loss of binding.
The protein concentration in the 1-ml final incubation volume was 800 ug/ml, corresponding to 32 mg of brain tissue (original wet weight) and to a tissue concentration within the linear range for specific binding. […] Incubations were terminated after 90 minutes at room temperature by addition of 4 ml of ice-cold 50 mM Tris/HCl (pH 7.4) and rapid filtration of the membrane suspension through Whatman GF/B glass-fiber filters under vacuum, using a 48-well cell harvester (Brandel). The filters were washed 2 times with 4 ml of 50 mM Tris/HCl (pH 7.4). Each filter was suspended in 10 ml Cytoscint (ICI), and radioactivity was measured by liquid scintillation spectrometry at a counting efficiency of approximately 50%. IC50 values were determined by non-linear regression analyis.
as §1
Radioligand Binding. […] Briefly, membranes (P2 microsomal fraction) were diluted 1:3 with 50 mM Tris HCl (pH 7.4) and 0.4 mL was combined with 50 μL [^3 H]DTG (1-2 nM final concentration) and 50 μL of competing drug or buffer. After 90 min at room temperature, incubation was terminated by rapid filtration under vacuum through Whatman GF/B glass fiber filters using a Brandel 48-well cell harvester. Filters were washed three times with 5 mL of cold Tris HCl buffer and each filter was suspended in 5 mL of Cytoscint (ICN Biomedical). Radioactivity was measured by liquid scintillation spectrometry at a counting efficiency of 50%.

[1] = Table 10, read-out: SIGMA-2 KI vs. 3H-DTG + PENTAZOCINE MEAN
[2] = SIGMA-1 KI vs. 3H-PENTAZOCINE MEAN
[3] = SIGMA-2 KI vs. 3H-DTG + PENTAZOCINE MEAN

T2 sequence (Q60492 whole entry): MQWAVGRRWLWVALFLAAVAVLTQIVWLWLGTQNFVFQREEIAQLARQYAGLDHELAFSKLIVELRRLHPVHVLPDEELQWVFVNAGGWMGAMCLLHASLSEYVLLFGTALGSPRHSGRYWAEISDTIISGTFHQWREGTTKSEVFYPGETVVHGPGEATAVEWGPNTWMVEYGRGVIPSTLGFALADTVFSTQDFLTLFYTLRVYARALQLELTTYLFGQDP

SMILES | IC50 (5-HT1A receptor) | IC50 (sigma receptor) | other results
OC(CCCN1CCN(c2ncc(F)cn2)CC1)c1ccc(F)cc1 (centres unmarked) [BMY-14802, reference compound] | – | – | Ki (sigma-2 binding site; [1]): 133 nM
CCCN1CCC[C@@H](c2cccc(O)c2)C1 [(-)3-PPP, reference compound] | – | – | Ki (sigma-1 binding site; [2]): 312 nM; S1/S2 Ratio (sigma-1 binding site): 0.248; Ki (sigma-2 binding site; [3]): 1260 nM
CC(C)=CCN(C)[C@@H](C)Cc1ccccc1 [Compound 114] | 34000 nM | 6.71 nM | –
OCCN1CCN(CCCN2c3ccccc3Sc3ccc(Cl)cc32)CC1 [Perphenazine, reference compound] | – | – | Ki (sigma-1 binding site; [2]): 25.1 nM; S1/S2 Ratio (sigma-1 binding site): 0.312; Ki (sigma-2 binding site; [3]): 80.4 nM
c1ccc(CCCCCCNCCCc2ccccc2)cc1 [Compound 110] | 117 nM | 3.62 nM | –
CC(C(O)c1ccc(O)cc1)N1CCC(Cc2ccccc2)CC1 (centres unmarked) [Ifenprodil, reference compound] | – | – | Ki (sigma-2 binding site; [3]): 2.39 nM
O=C(c1ccccc1)N1CCN(CCCCc2ccccc2)CC1 [Compound 80, N-4(4-phenylbutyl)-N'-benzoylpiperazine] | – | – | Ki (sigma-1 binding site; Table 10, read-out: SIGMA-1 KI vs. 3H-PENTAZOCINE MEAN): 71.8 nM; Ki (sigma-2 binding site; [1]): 965 nM
CCCc1ccc(CC(C)N(C)CCCc2ccccc2)cc1 (centres unmarked) [Compound 86] | 502 nM | 2.43 nM | –
C[C@@H](Cc1ccccc1)N(C)CCCc1ccc2ccccc2c1 [Compound 68] | 1320 nM | 3.25 nM | –
CN(C)CCCN1c2ccccc2Sc2ccc(Cl)cc21 [Chlorpromazine, reference compound] | – | – | Ki (sigma-1 binding site; [2]): 336 nM; S1/S2 Ratio (sigma-1 binding site): 0.471; Ki (sigma-2 binding site; [3]): 714 nM
C=CCN1CC[C@@]2(C)c3cc(O)ccc3C[C@@H]1[C@@H]2C [(-)SKF 10047, reference compound] | – | – | Ki (sigma-2 binding site; [3]): 9130 nM
c1ccc(CCCCCN2CCC(c3ccccc3)CC2)cc1 [Compound 82] | 136 nM | 0.96 nM | –
c1ccc(CCCCNCCCc2ccccc2)cc1 [Compound 72] | 11.3 nM | 7.23 nM | –
OC1(Cc2ccccc2)CCN(CCCCCc2ccccc2)CC1 [Compound 118] | 1970 nM | 2.14 nM | –
COc1cc(CC(C)NCCCCc2ccccc2)c(OC)cc1Br (centres unmarked) [Compound 66] | 272 nM | 45.1 nM | –
c1ccc(CCCCNCCCCc2ccccc2)cc1 [Compound 73] | 55.7 nM | 6.98 nM | –
CN(CCCCCc1ccccc1)Cc1ccccc1 [Compound 137, N-Benzyl-N-methyl-5-phenylpentylamine] | – | 1.11 nM | Ki (sigma-2 binding site; [1]): 12.5 nM; IC50 (sigma-2 binding site; Table 18, read-out: IC50 (nM) at sigma-2): 12 nM
CCCN1CCC[C@H](c2cccc(O)c2)C1 [(+)3-PPP, reference compound] | – | – | Ki (sigma-1 binding site; [2]): 47.7 nM; S1/S2 Ratio (sigma-1 binding site): 0.097; Ki (sigma-2 binding site; [3]): 493 nM
Clc1ccc(N2CCN(CCCc3ccccc3)CC2)cc1 [Compound 78] | 98.4 nM | 3.01 nM | –
CC(C)CCN(C)[C@@H](C)Cc1ccccc1 [Compound 115] | 20000 nM | 3.04 nM | –
c1ccc(CCCNC2CCCc3ccccc3C2)cc1 (centres unmarked) [Compound 67] | 19.3 nM | 59.6 nM | –

Reference: patent US6057371A, “Sigma receptor ligands and the use thereof” (Virginia Commonwealth University, priority 1992, dated 2000)
